“And” between values parts separate entries of the source, which are not always exact repeats. Equal values may be shown once.
Tests used:
in vivo [1] = details: male, Sprague-Dawley, rat, plasma, 2 mg/kg, rats, IA 2 mg/kg
From the text: A total of eight rats were divided into four groups (three IA groups and one oral group), with two rats in each group. […] The vehicle used for the oral administration was propylene glycol:ethanol:phophate buffer, 1 M, pH 8 (58:12:30).

[2] = Plasma apparent steady-state concentration after 10-h IV infusion
[3] = Liver S9 incubation, human; details: human liver S9, 20 μM
in vitro = details: human, Caco-2
[4] = Oral bioavailability in humans; details: in vivo, human patients
From the text: Compound A was well absorbed orally, providing a favorable drug exposure profile that is consistant with efficacious exposure in preclinical cancer models.

[5] = Microsomal incubation, rat; details: rat liver microsomes + NADPH, 20 μM
[6] = Microsomal incubation, dog; details: dog liver microsomes + NADPH, 20 μM
CYP1A2 = biological target: T1, CYP1A2 (Homo sapiens, UniProt P05177); assay: Inhibition of human CYP enzymes, CYP1A2
T1 sequence (P05177 1-516): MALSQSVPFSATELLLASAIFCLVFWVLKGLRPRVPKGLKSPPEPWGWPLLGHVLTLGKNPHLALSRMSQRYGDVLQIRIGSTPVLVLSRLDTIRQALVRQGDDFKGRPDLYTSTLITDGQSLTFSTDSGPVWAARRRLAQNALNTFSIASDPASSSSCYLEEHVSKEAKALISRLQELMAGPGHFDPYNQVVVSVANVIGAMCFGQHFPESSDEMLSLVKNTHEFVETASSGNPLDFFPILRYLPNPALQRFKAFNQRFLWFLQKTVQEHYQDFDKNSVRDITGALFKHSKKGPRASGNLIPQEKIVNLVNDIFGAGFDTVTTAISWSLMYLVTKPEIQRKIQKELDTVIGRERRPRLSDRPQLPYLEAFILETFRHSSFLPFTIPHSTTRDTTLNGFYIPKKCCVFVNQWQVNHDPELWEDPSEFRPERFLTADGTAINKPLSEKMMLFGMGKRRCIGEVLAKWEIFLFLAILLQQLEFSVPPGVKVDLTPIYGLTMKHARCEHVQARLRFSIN

in vivo [7] = details: male, Sprague-Dawley, rat, plasma, other: intraarterial (IA), 2 mg/kg
Experimental: In another pharmacokinetic study, fasted male Sprague-Dawley rats, assigned to two IA groups (2 mg/kg) and one oral (8 mg/kg) group (n=3/group), were administered a single dose of Compound A. Compound A was prepared for IA administration in two separate vehicles: vehicle 1, cremophor:ethanol:water (10:10:80), and vehicle 2, ethanol:phosphate buffer, 0.05 M, pH 7.4 (6:94). The vehicle for the oral administration was ethanol:phosphate buffer, 0.3 M, pH 8 (18:82). Samples were collected at 10, 15, 30, and 45 min, and at 1, 2, 4, 6, 8, 10, 24, and 48 hours after dosing.

[8] = system: panel of tumor cell lines; assay: In vitro cytotoxicity assay (MTS), panel of tumor cell lines; assay type: cell-based; details: Homo sapiens; 7 of the 8 cell lines tested, 72-hour incubation
rabbit Purkinje fiber = assay: Rabbit Purkinje-fiber action potential model; assay type: cell-based; details: 30 μM
Experimental: (§1) Human embryonic kidney (HEK293) cells stably transfected with the human ether-a-go-go related gene (HERG) cDNA were utilized in the HERG assay. Rabbit Purkinje fibres were used for the Purkinje-fibre action potential assay^7.
In a non-GLP study^7, Compound A, at concentrations of 3, 10 and 30 μM, was evaluated in an in vitro rabbit Purkinje fiber model. This model was developed to determine if a compound would affect the action-potential duration of the Purkinje fiber or other action-potential parameters. […] Based on these findings, Compound A is unlikely to provoke clinically relevant electrocardiographic effects in vivo.

[9] = system: tubulin isolated from calf brain; assay type: biochemical
[10] = system: Pat-26 human pancreatic carcinoma; details: mouse, in vivo
[11] = biological target: T2, HERG (IKr) potassium channel (Homo sapiens, UniProt Q12809); assay: HERG (IKr current) assay; assay type: cell-based; details: 30 μM, HEK293 cells transfected with HERG
T2 construct: expressed in transfected cells; host or cells: HEK293
T2 sequence (Q12809 whole entry): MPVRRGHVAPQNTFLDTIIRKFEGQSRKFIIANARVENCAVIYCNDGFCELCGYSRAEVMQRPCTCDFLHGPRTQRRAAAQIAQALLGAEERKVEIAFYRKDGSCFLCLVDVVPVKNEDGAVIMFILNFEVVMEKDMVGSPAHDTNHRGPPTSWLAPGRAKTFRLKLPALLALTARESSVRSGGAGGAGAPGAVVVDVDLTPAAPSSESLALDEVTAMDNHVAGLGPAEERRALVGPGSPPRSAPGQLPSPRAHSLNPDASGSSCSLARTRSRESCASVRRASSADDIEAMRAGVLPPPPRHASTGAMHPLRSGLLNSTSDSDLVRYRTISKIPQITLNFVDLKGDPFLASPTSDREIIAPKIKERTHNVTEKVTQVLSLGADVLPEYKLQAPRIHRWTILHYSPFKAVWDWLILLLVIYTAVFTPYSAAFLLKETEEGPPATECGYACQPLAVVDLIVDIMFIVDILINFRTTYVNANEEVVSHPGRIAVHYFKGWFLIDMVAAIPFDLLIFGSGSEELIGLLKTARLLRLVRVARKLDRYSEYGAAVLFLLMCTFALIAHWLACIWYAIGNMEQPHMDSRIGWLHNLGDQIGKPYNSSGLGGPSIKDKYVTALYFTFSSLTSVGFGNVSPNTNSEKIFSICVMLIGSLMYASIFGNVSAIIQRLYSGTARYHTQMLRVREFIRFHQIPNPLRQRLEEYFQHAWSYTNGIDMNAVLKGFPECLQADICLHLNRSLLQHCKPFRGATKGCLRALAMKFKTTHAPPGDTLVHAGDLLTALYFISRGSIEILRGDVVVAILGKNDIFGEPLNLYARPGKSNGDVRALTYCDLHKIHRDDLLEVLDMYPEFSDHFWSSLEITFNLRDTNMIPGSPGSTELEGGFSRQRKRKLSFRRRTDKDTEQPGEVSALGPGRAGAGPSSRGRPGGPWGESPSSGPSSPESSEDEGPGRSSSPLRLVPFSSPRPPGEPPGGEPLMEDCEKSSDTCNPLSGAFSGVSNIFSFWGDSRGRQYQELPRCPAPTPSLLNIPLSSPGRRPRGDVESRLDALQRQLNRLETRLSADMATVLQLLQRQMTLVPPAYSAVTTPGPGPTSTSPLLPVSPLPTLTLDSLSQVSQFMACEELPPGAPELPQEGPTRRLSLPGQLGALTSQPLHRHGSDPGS
Experimental: as §1
In a non-GLP study^7, Compound A was evaluated for effects on potassium channel current at concentrations of 10 and 30 μM. The human ether-a-go-go related gene (HERG) encodes the rapidly activating delayed-rectifier potassium channel (IKr) in heart. […] Based on the findings, it is unlikely that Compound A would cause IKr-mediated increases in the QT interval at anticipated therapeutic plasma concentrations.

in vivo [12] = details: Balb/c nu/nu, mouse, po
CYP2D6 = CYP2D6 (Homo sapiens, UniProt P10635); assay: Inhibition of human CYP enzymes, CYP2D6
Chain of CYP2D6 (P10635 whole entry): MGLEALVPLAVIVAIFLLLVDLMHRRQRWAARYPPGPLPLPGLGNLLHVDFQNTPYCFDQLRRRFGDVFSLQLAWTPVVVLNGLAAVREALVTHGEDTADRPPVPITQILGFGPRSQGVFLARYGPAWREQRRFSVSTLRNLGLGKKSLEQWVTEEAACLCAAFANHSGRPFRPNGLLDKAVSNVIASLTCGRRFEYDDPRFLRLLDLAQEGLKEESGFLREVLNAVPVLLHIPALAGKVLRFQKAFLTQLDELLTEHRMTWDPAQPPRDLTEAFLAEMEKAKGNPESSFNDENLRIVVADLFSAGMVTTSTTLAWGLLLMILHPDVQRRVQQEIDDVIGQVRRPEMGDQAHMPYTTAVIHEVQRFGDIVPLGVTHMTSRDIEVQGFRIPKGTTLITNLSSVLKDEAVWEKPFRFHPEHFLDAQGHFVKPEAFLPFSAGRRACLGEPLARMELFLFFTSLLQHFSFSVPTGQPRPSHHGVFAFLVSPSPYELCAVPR

[13] = 40 mg/m2, oral, 40 mg/m^2, n=10

Structure (SMILES): C/C(=C\c1csc(CN)n1)[C@@H]1C[C@@H]2O[C@]2(C)CCC[C@H](C)[C@H](O)[C@@H](C)C(=O)C(C)(C)[C@@H](O)CC(=O)O1 (relative stereo) [Compound A, [1S-[1R*,3R*(E),7R*,10S*,11R*,12R*,16S*]]-3-[2-[2-(aminomethyl)-4-thiazolyl]-1-methylethenyl]-7,11-dihydroxy-8,8,10,12,16-pentamethyl-4,17-dioxabicyclo[14.1.0]heptadecane-5,9-dione]
- AUC (in vivo [1]; mean AUC, vehicle 1 ethanol:water (10:90)): 133 ng·h/mL
- AUC (in vivo [1]; mean AUC, vehicle 2 cremophor:ethanol:water (10:10:80)): 708 ng·h/mL
- AUC (in vivo [1]; pH 7.4, mean AUC, vehicle 3 propylene glycol:ethanol:phosphate buffer pH 7.4 (40:5:55)): 210 ng·h/mL
- apparent steady-state concentrations ([2]; doses of 2 and 4 mg/kg, 10-h IV infusion, mouse plasma): 18-31 ng/mL and 35-60 nM
- MEC ([2]; estimated from plasma Css, 10-hr IV infusion, Pat-7 model): 35 to 60 nM
- rate of oxidative metabolism [3]: 0.06
- Papp at 200 μM (in vitro): 6 ×10⁻⁶ cm/s
- AUC [4, 13]: 631 ng·h/mL
- Cmax [4, 13]: 177 ng/mL
- half-life ([4]; 40 mg/m2, oral, 40 mg/m^2, n=10, read-out: Half-Life (SD) (converted)): 1790 min
- Tmax ([4]; 40 mg/m2, oral, 40 mg/m^2, n=10, read-out: Tmax, median (minimum, maximum)): 1 h
- bioavailability ([4]; oral vs IV, 40 mg/m^2, n = 9, read-out: Bioavailability (SD)): 27%
- rate of oxidative metabolism [5]: 0.05 mmol/min/mg protein
- rate of oxidative metabolism [6]: 0.07
- IC50 (CYP1A2): > 70 µM
- AUC (in vivo [7]): 2890 ng·h/mL
- AUC (in vivo [7]; pH 7.4): 717 ng·h/mL
- IC50 [8]: 0.9 to 3.5 nM
- decrease of Purkinje fiber APD90 (rabbit Purkinje fiber): less than 10%
- Polymerization Potency, EC0.01 [9]: 7.4 µM
- Ratio of Polymerization Potency of Analog/Paclitaxel [9]: 1.7
- MTD [10]: 10 mg/kg/inj
- LCK (gross log cell kill) ([10]; iv): 1.2
- maximum inhibition of IKr current [11]: 13.5%
- MTD (in vivo [12]): 90 mg/kg
- IC50 (CYP2D6): > 70 µM

Reference: patent US6936628B2, “Oral administration of epothilones” (Bristol-Myers Squibb Company, priority 2002, dated 2005)
